Results from PubChem BioAssay AID179 (DTP/NCI, 2004).
Several values for one entry are separate records, joined by “and”; a condition that tells them apart may be missing. Equal values may be shown once. Activity calls are given as the source filed them.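 Rule for the calls: active = compounds giving half or more protection of infected cells from virus-caused growth loss, again on retest; inactive = the rest.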 Where a SMILES comes first, the peptide text is derived from it. [ ]: non-standard residue; d: D form. The star is where a group is joined. Phe(4-NO2) = N[CH](Cc1ccc([N+](=O)[O-])cc1)C(=O)O; Boc = CC(C)(C)OC(=O)*

System: CEM cells HIV-1 protection, formazan growth assay
Test: NCI AIDS Antiviral Assay
Conditions: for IC50: measured here: growth of uninfected CEM cells
Method in brief: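 CEM (human) cells, HIV-1 infected vs uninfected, 5-point dosing, formazan growth read-out. Retest threshold 50% protection.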

Compound | EC50 | IC50 | outcome
COc1cc(-c2cc(=O)c3c(O)cc(C)cc3o2)cc(OC)c1OC | > 200 µM | > 200 µM | –
Nc1nc(SCc2ccccc2)c2ncn(CCO)c2n1 | > 200 µM | 191 µM | –
COC(=O)/C=C/c1c[nH]c2nccnc12 | > 166 µM | 53.7 µM | –
CNC(=O)CCC(NC(=O)OC(C)(C)C)C(=O)NC(Cc1ccc([N+](=O)[O-])cc1)C(=O)NCC(=O)NC (stereo not given) (Boc-Glu(NHMe)-[Phe(4-NO2)]-Gly-NHMe; configuration not given here) | > 200 µM | > 200 µM | –
CC(=O)Oc1ccc2c(=O)c(C(C)=O)coc2c1 | – | – | inactive
Clc1cc2ncn(C3CCCO3)c2cc1Cl (stereo not given) | > 200 µM | 61.7 µM | –
CCOP(=S)(OCC)Oc1cc(C)nc(C(C)C)n1 | > 309 µM | > 309 µM | –
CCCCCCCCCCCCOC1OC(COC(C)=O)C(OC(C)=O)C(OC(C)=O)C1OC(C)=O (stereo not given) (tested in a mixture with another compound) | > 38 µM | 24 µM | –
CCOC(=O)C1(C(=O)OCC)CSC1 | > 309 µM | > 309 µM | –
CCCCCCCCCCCCCCCCCCCCOC1OC(CO)C(O)C(O)C1O (stereo not given) | > 3.63 µM | > 3.63 µM | –
CO[C@@]12CC(=O)/C(=C(O)\C=C\c3ccccc3)C(=O)[C@]1(OC)Cc1ccccc1O2 | > 17.8 µM | 15.5 µM | –
CCOC(=O)C1C(c2ccc(OC)cc2)c2c([nH][nH]c2=O)CC1(C)O (stereo not given) | > 200 µM | > 200 µM | –
CN(c1ccccc1)C(c1ccccc1)C(O)c1ccccc1 (stereo not given) | – | – | inactive
O=C(O)c1ccc2c(c1)C(=O)c1ccccc1C2=O | > 200 µM | 97.7 µM | –
C/C(CC(=O)Nc1cccc(Cl)c1C)=N\N=C(N)N | > 91.2 µM | > 91.2 µM | –
O=C1/C(=C/c2ccccc2)CC/C1=C\c1ccccc1 | – | – | inactive
CC(C)(C)C1=NC(=P(c2ccccc2)(c2ccccc2)c2ccccc2)C(=O)O1 | > 100 µM | > 100 µM | –
CC(C)CCC1(O)O[C@H]2C[C@H]3[C@@H]4CCC5CC(=O)C=C[C@]5(C)[C@H]4CC[C@]3(C)[C@H]2[C@@H]1C (stereo not given in full) | > 151 µM | 21.4 µM | –
COC(=O)C1CC(C(=O)OC)c2nc3cc([N+](=O)[O-])ccc3nc21 (stereo not given) | > 151 µM | 61.7 µM | –
Cc1cc(CO)c(O)c(C(=O)CC2CC(=O)NC(=O)C2)c1 | > 200 µM | 57.5 µM | –
C1CCC2(CC1)CCN(CCCN1CCOCC1)CC2 | – | – | inactive
CCOC1NC(=O)Oc2ccccc21 (stereo not given) | – | – | inactive

Compound | EC50 | IC50 | outcome
Cn1c(=O)cc(NNc2ccc(Cl)c(Cl)c2)[nH]c1=O | > 200 µM | 3.09 µM | –
CCN(CC)C(=S)SS(=O)(=O)c1ccccc1C(=O)O | > 200 µM | 112 µM | –
CCOP(=O)(OCC)C1CC(O)C(=O)N1 (stereo not given) | > 200 µM | > 200 µM | –
Cc1ccnc(NC(=O)Nc2ccc(F)c([N+](=O)[O-])c2)c1 | > 200 µM | > 200 µM | –
CCOC(=O)CC[P+](c1ccccc1)(c1ccccc1)c1ccccc1 | > 200 µM | 21.4 µM | –
O=C(O)/C=C/CCC1SCC2NC(=O)NC21 (stereo not given) | > 107 µM | > 107 µM | –
CCCCOC(=O)c1ccc(NC(=O)C(C)N(CC)CC)cc1 (stereo not given) | > 200 µM | 36.3 µM | –
COc1cc2c(cc1OC)C(Cl)C(c1ccc(Cl)cc1)=C2Cl (stereo not given) | – | – | inactive
COC(=O)c1cc(C(=CC(=O)N[C@@H]2CC[C@@]3(C)[C@@H](CC[C@@H]4[C@@H]3CC[C@]3(C)[C@@H]([C@H](C)CCCC(C)C)CC[C@@H]43)C2)c2cc(Cl)c(OC)c(C(=O)OC)c2)cc(Cl)c1OC | > 100 µM | > 100 µM | –
C=C(c1ccccc1)C1ON(C)CCc2cc(OC)c(OC)cc21 (stereo not given) | > 200 µM | > 100 µM | –
NC(CS)=NCc1ccccc1 | > 200 µM | 33.1 µM | –
CCOC(=O)C(C(=S)Nc1ccccc1)c1nn2c(=O)cc(C)nc2s1 (stereo not given) | > 200 µM | 34.7 µM | –
CC(C)(C)COC1C2(OCCO2)C2CCC1(C)C2(C)C (stereo not given) | > 200 µM | > 200 µM | –
O=C(Nc1sccc1S(=O)(=O)c1ccccc1)c1cccnc1 | > 200 µM | 4.47 µM | –
COc1ccc([C@@H]2C[C@@H]3C(=O)OC(=O)[C@@H]3c3c2c2ccccc2n3C)cc1 | > 52.5 µM | > 52.5 µM | –
NC(=S)N/N=C1\COC(C(F)(F)F)(C(F)(F)F)C1 | > 200 µM | 166 µM | –
CSc1nc(N)c2c(-c3ccccc3)c3c(nc2n1)CCCC3 | > 200 µM | > 200 µM | –
Nc1ccc(S(=O)(=O)C(=O)O)cc1 | > 1230 µM | > 1230 µM | –
COc1ccc2c3ccc4c(c3n(C)c2c1)C(=O)c1ccccc1C4=O | > 1.51 µM | > 1.51 µM | –
COc1cccc(/C=N/NC(=O)c2ccccc2[O-])c1[O-].[OH3+].[Pd+2] | > 200 µM | 1.26 µM | –
COC(=O)CSc1nc2[nH]c(SC)c(C(N)=O)c2c(=O)n1-c1ccccc1 | > 200 µM | > 200 µM | –
Cc1cn(C2CC(NO)C(CO[Si](C)(C)C(C)(C)C)O2)c(=O)[nH]c1=O (stereo not given) | > 200 µM | 126 µM | –

Compound | EC50 | IC50 | outcome
O=c1[nH]c2c(cnn2-c2ccccc2)c(=O)n1O | > 200 µM | > 200 µM | –
CONC(C)=O | > 200 µM | > 200 µM | –
COc1ccc(N2C(=O)/C(=C(\C)c3cc4ccccc4oc3=O)N=C2c2cc([N+](=O)[O-])ccc2Cl)cc1 | > 10 µM | > 10 µM | –
Cn1c(CCC2(C)Cc3ccccc3C(=O)O2)cc2ccccc2c1=O (stereo not given) | > 200 µM | 36.3 µM | –
O=C(O)COc1ccc2c3c1C(=O)CCC3CO2 (stereo not given) | – | – | inactive
C=C1c2[nH]c3ccccc3c2CC(C(=O)O)N1C(O)c1ccc(S(=O)(=O)O)cc1 (stereo not given) | – | – | inactive
COc1ccccc1/C=C1/Sc2scc(CC(=O)Nc3ccccc3)[n+]2C1=O | – | 28.8 µM | inactive
C=C1C(=O)O[C@@H]2C[C@@H](C)[C@@H]3C=CC(=O)[C@@]3(C)[C@@H](O)[C@H]12 | > 9.55 µM | 0.513 µM | –
COc1ccc(C(c2c(O)c3ccccc3oc2=O)c2c(O)c3ccccc3oc2=O)c(OC)c1 | > 200 µM | 85.1 µM | –
CC1(C)C/C(=N/O)c2c(nc3ccc4ccccc4c3c2-c2ccc(Cl)cc2)C1 | > 100 µM | 37.2 µM | –
CC(=O)OCC1OC(n2c3c(c(-c4ccc(Cl)cc4)c(C#N)c2=S)CCCC3)C(OC(C)=O)C(OC(C)=O)C1OC(C)=O (stereo not given) | > 200 µM | 26.3 µM | –
N#CC(NNC(=O)c1ccccc1O)c1ccc(O)cc1 (stereo not given) | > 331 µM | 1.95 µM | –
O=C(c1ccccc1)C1N(c2ccccc2)CCN1c1ccccc1 | > 200 µM | 21.9 µM | –
Nc1[nH]c(=O)[nH]c(=O)c1Cc1cccc(Cl)c1 | > 200 µM | 39.8 µM | –
CC(C)(C)C1CC[C@H](O)[C@H]([C@H](O)CC2CC(=O)N(c3ccccc3)C(=O)C2)C1 (stereo not given in full) | > 200 µM | > 200 µM | –
Cn1c(-c2ccc(/C=N\N3CCN(/N=C/c4ccc(-c5c[n+]6ccccc6n5C)cc4)CC3)cc2)c[n+]2ccccc12 | > 3.02 µM | > 3.02 µM | –
CC(C)N(C=C(C#N)C#N)C(C)C | > 200 µM | > 200 µM | –
O=c1[nH]c2cnn(-c3ccccc3)c2c(=O)n1OS(=O)(=O)c1ccccc1 | > 200 µM | > 200 µM | –
O=C1/C(=C/c2ccc(Cl)cc2)CNC/C1=C\c1ccc(Cl)cc1 | > 151 µM | 10.5 µM and 1.05 µM | –
O=C(NCCO)c1c(CN(CCO)CCO)n([O-])c2ccccc2[n+]1=O | > 490 µM | 457 µM | –
CCOC(=O)/C(=C\c1ccc[nH]1)C(=O)c1ccccc1 | > 95.5 µM | > 95.5 µM | –
O=C1NCCCc2nonc21 | > 200 µM | > 200 µM | –

Compound | EC50 | IC50 | outcome
CC(C)(C)OC(=O)C1=C(O)C(C(=O)OC(C)(C)C)C23CCCCC12C(C(=O)OC(C)(C)C)C(O)=C3C(=O)OC(C)(C)C (stereo not given) | – | – | inactive
COc1cc2c(c(O)c1O)C(=O)C1CCC(=O)N1C2c1cccc2ccccc12 (stereo not given) | > 50.1 µM | 35.5 µM | –
Cc1ccc2oc(=O)c(C#N)c(C)c2c1 | > 25.1 µM | > 25.1 µM | –
COC(=O)C1=C2Nc3ccccc3[C@@]23CCN(Cc2ccccc2)C3CC1[C@@H]1COC(C)(C)O1 (stereo not given in full) | > 100 µM | 51.3 µM | –
COc1cc(C2C(C(=O)Nc3ccccc3C)=C(C)NC(C)=C2C(=O)Nc2ccccc2C)ccc1O | > 363 µM | > 200 µM | –
C/C=C(\N=C=S)C(=O)OC1C(COC(C)=O)OC([C@]2(O)CC(=O)C(=N)C(C(=O)O)=C2O)C(O)C1OC1CC(OC)C(O)([C@@H](C)OC(=O)[C@@H](C)CC)C(C)O1 (stereo not given in full) | – | – | inactive
CCOc1ccc(NC2=CC(=O)C(=O)c3ccccc32)cc1 | > 9.55 µM | > 9.55 µM | –
O=C1CC(Cc2n[nH]c3c2CCCC3)CC(=O)N1 | > 200 µM | > 200 µM | –
CCN(CC)CC(=O)Nc1ccc(C)c(Cl)c1 | > 200 µM | 112 µM | –
COC(=O)c1cc(Cc2cc(C(=O)OC)c(OC)c(C(F)(F)F)c2)cc(C(F)(F)F)c1OC | > 200 µM | 25.7 µM | –
OC1c2cccn2-c2cc(Cl)ccc2SC1c1ccccc1 (stereo not given) | > 70.8 µM | 4.47 µM | –
CC(=O)Nc1cc2c(s1)CCC1CC(=O)NN=C21 (stereo not given) | > 200 µM | > 200 µM | –
O=C(CC(=O)Nc1ccccc1)N/N=C/c1cc(N=Nc2ccc(Br)cc2)ccc1O | > 200 µM | 1.35 µM | –
Cc1cc(C)nc(NS(=O)(=O)c2ccc(Nc3c4ccccc4nc4c(C(=O)NCCN(C)C)ccc(Cl)c34)cc2)n1 | – | – | inactive
CO[C@@H]1C[C@H]2[C@@H]3CC[C@H]([C@H](C)CO)[C@@]3(C)CC[C@@H]2[C@@]2(C)CC[C@H]3C[C@]312 | > 174 µM | 81.3 µM | –
O=[N+]([O-])c1cccc(C2SCc3nc4ccccc4n32)c1 (stereo not given) | > 60.3 µM | 37.2 µM | –
C=C1c2ccccc2CCN1CC(=O)CC1C=CCS1(=O)=O (stereo not given) | > 407 µM | > 407 µM | –
O=C1c2cccc3cc([N+](=O)[O-])cc(c23)C(=O)N1CCCN(CCO)CCO | – | – | inactive
CC1=NN(C(=O)CC(=O)Nc2cccc(C)c2)C(=O)C1N=Nc1ccc(S(=O)(=O)CCOS(=O)(=O)O)cc1 (stereo not given) | > 2 µM | 1.26 µM | –
C=CCN1C(=O)CSC1=S | > 288 µM | 13.5 µM | –
